# In ChEMBL document CHEMBL3507680, “University of Dundee, Gates Library screen for HepG2 cell viability”:
# Test: Human HepG2 cell viability assay in 384 well format
# Type: toxicity, cell-based
# Parameters: dose 125 nL, time 70.5 hour; cytotoxicity at 70.5 h: concentration not given beside the values
# Settings: HepG2 cells, read-out: Inhibition
row,Structure (SMILES),cytotoxicity at 70.5 h
1,CC(CO)NC(=O)Nc1ccc(CC#N)cc1 (configuration not stated),-4.42%
2,CCC(C)(CC(=O)OC)NCc1noc(C)n1 (configuration not stated),26.6%
3,CSCCC(=O)N1CCN(CC(C)O)CC1 (configuration not stated),-2.96%
4,CCN(Cc1ncc(C(C)(C)C)o1)Cc1ccccc1C,-1.58%
5,CCN(CC(C)O)C(=O)Nc1cnn(CCOC)c1 (configuration not stated),6.07%
6,COCCN(Cc1ccc(C)o1)C(=O)Nc1nnc(C(F)F)s1,-7.33%
7,CCN1CCN2CCCN(S(=O)(=O)c3cccc(F)c3)C2C1=O (configuration not stated),-8.84%
8,CS(=O)(=O)Cc1cccc(CNS(=O)(=O)c2ccc(F)c(F)c2)c1,-8.75%
9,Cc1ccc(F)c(S(=O)(=O)NCc2cccc(CS(C)(=O)=O)c2)c1,-18%
10,Cc1nn(C)c(C)c1C(=O)N1CCN(C(=O)CCC2CCCCC2)CC1,-13.4%
11,COC(=O)CC(NC(=O)CCn1cccn1)c1ccc(C)cc1 (configuration not stated),-0.705%
12,Cc1nc(C(=O)N(CC(=O)N(C)C)CC(F)(F)F)c2ccccn12,-4.52%
13,Cc1occc1C(=O)NCC(O)c1ccc(Cl)s1 (configuration not stated),3.32%
14,NC(=O)CN1CCN(S(=O)(=O)N2CCCC2c2ccco2)CC1 (configuration not stated),-3.32%
15,O=c1[nH]c(C2CCOC2)nc2cc(F)c(F)cc12 (configuration not stated),-10.3%
16,CC(C)CNC(=O)C(C)N1CCN(C2CCN(C(C)C)CC2)CC1 (configuration not stated),-12.6%
17,COc1cc(CNc2cc(-c3ccoc3C)nn2CCO)ccc1F,11.9%
18,O=C(c1ccc(-n2cccn2)nc1)N1CCC(c2ccc(O)cc2)CC1,-5.83%
19,COc1ccc(C(C)NCc2nnc(C)s2)cc1F (configuration not stated),-2.29%
20,Cc1nnc(CNC(C)c2cc(C)c(F)c(C)c2)s1 (configuration not stated),-5.2%
21,Cc1cc(C)cc(C(C)NCc2nnc(C)s2)c1 (configuration not stated),-12%
22,COCCN(Cc1ccc(C)o1)C(=O)Nc1ncc(C)s1,-8.73%
23,CCN(Cc1cccc(Cl)c1)Cc1ncc(C(C)(C)C)o1,-1.17%
24,COc1cc(NCCNC(=O)c2cc[nH]c2C)cc(OC)c1,3.9%

row,Structure (SMILES),cytotoxicity at 70.5 h
1,NC(=O)CC1CCN(S(=O)(=O)N2CCCC2c2ccco2)CC1 (configuration not stated),-5.7%
2,COC(=O)CC(NC(=O)CCCn1cccn1)c1ccc(Cl)cc1 (configuration not stated),-14.1%
3,COCc1nnc(-c2cccc(C(=O)N(C)CC(C)(C)C)c2)o1,-14.1%
4,Cc1noc(CCCNC(=O)C2CSCN2C(=O)C(C)(C)C)n1 (configuration not stated),18.7%
5,Cc1ccc(CCCC(=O)N2CCC(=O)Nc3cccnc32)s1,12.9%
6,Cc1ncsc1CCN(C)Cc1ccc(Br)o1,9.94%
7,CC(C)c1nnc(NC(=O)Cc2csc(-c3nnc[nH]3)n2)s1,22.4%
8,Cc1cnn(C2CN(c3nc(-c4ccncc4)nc4c3CCC4)C2)c1,-6.05%
9,CCC(C)c1csc(NC(=O)c2sc(-c3nnc[nH]3)nc2C)n1 (configuration not stated),-9.94%
10,Cc1nn2cccnc2c1C(=O)NCc1ccccc1OCC1CC1,-13.8%
11,N#Cc1cccnc1Nc1ccc(N2CCC(C(N)=O)CC2)cc1,4.18%
12,CNC(=O)CCOC(=O)c1cccc(-n2cccn2)c1,-10.7%
13,O=C(Cc1cccnc1)N1CCCC(c2cc(C(F)(F)F)[nH]n2)C1 (configuration not stated),-2.42%
14,FC(F)(F)c1cc(C2CCCN(Cc3cccnc3)C2)n[nH]1 (configuration not stated),9.85%
15,Cc1ccc(CCCC(=O)N2CC(=O)Nc3cccnc32)s1,-11.1%
16,CN(Cc1csc2ccccc12)C(=O)NC1CCS(=O)(=O)C1 (configuration not stated),-7.9%
17,CC(NCc1nnc2n1CCCC2)c1nc(-c2cccs2)no1 (configuration not stated),2.78%
18,Cc1noc(CCCC(=O)N2CSCC2C(=O)NCC2CC2)n1 (configuration not stated),-7.96%
19,FC(F)(F)c1cc(C2CCCN(Cc3ccncc3)C2)n[nH]1 (configuration not stated),-1.55%
20,Cc1ncc(CNC(CCO)C2CCCCC2)s1 (configuration not stated),1.31%
21,Cc1ccc(C)c(S(=O)(=O)CCN2CCCC2Cn2cccn2)c1 (configuration not stated),-7.12%
22,CCc1nnc2n1CCN(C(=O)CCOc1ccc(C)cc1C)C2,-4.53%
23,Cc1occc1C(=O)Nc1cccc(C(=O)OCC2CCCN2)c1 (configuration not stated),23.7%
